Data set [1] is described as follows: UV absorption spectrum in dichloromethane. It is filed as physicochemical. The following applies: for optical band gap: calculated by equation (1), 1240 nm/λonset. The protocol:
UV absorption spectrum measurement was conducted using U-3900 spectrometer. Samples were dissolved in dichloromethane to a molar concentration of 1×10^−6M, the scanning scope was 800-200 nm, and the optical band gap of the compound was calculated according to the following equation, Egap^opt=1240 nm/λonset (1)

Data set [2] is described as follows: Cyclic voltammetry in dichloromethane. It is filed as physicochemical. The following applies: for LUMO energy level: calculated by equation (2), −(E1/2^red1+4.44); for half-wave potential E1/2^red1 / half-wave potential E1/2^red2: Bu4NPF6 0.1 M, 50 mV/s. The protocol: Cyclic voltammetry measurement was conducted by CHI610D electrochemical analyzer with computer control using a conventional tri-electrode system with platinum electrode as a working electrode, saturated calomel electrode (SCE) as a reference electrode, and platinum wire as a counter electrode. Samples were dissolved in freshly distilled dichloromethane to a molar concentration of 1×10^−3 M. Bu4NPF6 (0.1 M) was applied as a supporting electrolyte. The scan rate was 50 mV/s. Using saturated calomel as reference, taking the SCE energy level to be −4.44 eV below the vacuum level, the LUMO energies for the test material can be calculated by using the following equation for energy level: ELUMO=−(E1/2^red1+4.44) eV (2)

The nature of data set [3]: Solubility in common organic solvents at room temperature. The following applies: for example chloroform, tetrahydrofuran. The format is physicochemical. The source says:
The 21 exemplary compounds (1˜21) described above for the five classes of sulfur containing heterocycle fused naphthalenetetracarboxylic acid diimide derivatives are soluble in regular organic solvents, such as chloroform, toluene, chlorobenzene, dichlorobenzene, and the like.

Data set [4] can be described thus: Cyclic voltammetry in dichloromethane. The format is physicochemical. The following applies: calculated by equation (3), −(Ered^onset+4.4).

For the molecule `CCCCCCC(CCCCCC)Cn1c(=O)c2c3sc(=C(C#N)C#N)sc3c3c(=O)n(CC(CCCCCC)CCCCCC)c(=O)c4c5sc(=C(C#N)C#N)sc5c(c1=O)c2c34` [Compound 4, N,N′-di(2-hexyloctyl)-[2,3-d:6,7-d′]-bi[2-(1,3-dithiacyclopenten-2-ylidene)-2-malononitrile]-naphthalene-1,4,5,8-tetracarboxylic acid diimide], the melting point was in the range of 349 to 351 °C.

Take `CCCCCCCCC(CCCCCC)Cn1c(=O)c2c3sc(=C(C#N)C#N)sc3c3c(=O)n(CC(CCCCCC)CCCCCCCC)c(=O)c4c5sc(=C(C#N)C#N)sc5c(c1=O)c2c34` (stereo not shown) [Compound 3, N,N′-di(2-hexyldecyl)-[2,3-d:6,7-d′]-bi[2-(1,3-dithiacyclopenten-2-ylidene)-2-malononitrile]-naphthalene-1,4,5,8-tetracarboxylic acid diimide]: the melting point fell in the range of 317 to 319 °C.

The molecule `CCCCCCCCCCCCC(CCCCCCCCCC)Cn1c(=O)c2c3sc(=C(C#N)C#N)sc3c3c(=O)n(CC(CCCCCCCCCC)CCCCCCCCCCCC)c(=O)c4c5sc(=C(C#N)C#N)sc5c(c1=O)c2c34` (stereo not shown) [Compound 1, N,N′-di(2-decyltetradecyl)-[2,3-d:6,7-d′]-bi[2-(1,3-dithiacyclopenten-2-ylidene)-2-malononitrile]-naphthalene-1,4,5,8-tetracarboxylic acid diimide] yielded a melting point of 240 °C. Also, in data set [1], the optical band gap is recorded as 2.1 eV. For the same molecule, the “maximum UV absorption peak” value in data set [1] (dichloromethane, 1×10^−6M) was “around 573 nm”. In data set [2], the LUMO energy level is −4.35 eV. For the same molecule, in data set [2] (vs SCE, dichloromethane), the “half-wave potential E1/2^red1” value is on record as −0.09 V and the “half-wave potential E1/2^red2” value is −0.63 V.

`CCCCCCCCn1c(=O)c2c3sc(=C(C#N)C#N)sc3c3c(=O)n(CCCCCCCC)c(=O)c4c5sc(=C(C#N)C#N)sc5c(c1=O)c2c34` [Compound 8, N,N′-di(n-octyl)-[2,3-d:6,7-d′]-bi[2-(1,3-dithiacyclopenten-2-ylidene)-2-malononitrile]-naphthalene-1,4,5,8-tetracarboxylic acid diimide]: in data set [3], the solubility entry was “relatively low solubility”.

As to `CCCCCCCCCCC(CCCCCCCC)Cn1c(=O)c2c3sc(C#N)c(C#N)sc3c3c(=O)n(CC(CCCCCCCC)CCCCCCCCCC)c(=O)c4c5sc(C#N)c(C#N)sc5c(c1=O)c2c34` (stereo not shown) [Compound 15, N,N′-di(2-octyl-dodecyl)-[2,3-d:6,7-d′]-bi[1,4-dithiacyclohexadiene-2,3-dicarbonitrile]-naphthalene-1,4,5,8-tetracarboxylic acid diimide], the optical band gap in data set [1] was 2.0 eV. Moreover, the “maximum UV absorption peak” value in data set [1] (dichloromethane, 1×10^−6M) is given as “around 550 nm”. In addition, the LUMO energy level in data set [2] was −4.28 eV. Besides, in data set [2] (vs SCE, dichloromethane), the “half-wave potential E1/2^red1” value is listed as −0.16 V and the “half-wave potential E1/2^red2” value is given as −0.64 V.

Regarding `CCCCCCCCCCC(CCCCCCCC)Cn1c(=O)c2c3sc(=C(C#N)C(=O)OCC)sc3c3c(=O)n(CC(CCCCCCCC)CCCCCCCCCC)c(=O)c4c5sc(=C(C#N)C(=O)OCC)sc5c(c1=O)c2c34` (stereo not shown) [Compound 9, N,N′-di(2-octyldodecyl)-[2,3-d:6,7-d′]-bi[ethyl 2-(1,3-dithiacyclopenten-2-ylidene)-2-cyanoacetate]-naphthalene-1,4,5,8-tetracarboxylic acid diimide], in data set [1], the optical band gap is 2.0 eV. Besides, the “maximum UV absorption peak” value in data set [1] (dichloromethane, 1×10^−6M) is on record as “around 581 nm”. For the same molecule, the LUMO energy level in data set [2] was −4.23 eV. In data set [2] (vs SCE, dichloromethane), the “half-wave potential E1/2^red1” value was −0.21 V and the “half-wave potential E1/2^red2” value is recorded as −0.68 V.

The molecule `CCCCCCC(CCCC)Cn1c(=O)c2c3sc(=C(C#N)C#N)sc3c3c(=O)n(CC(CCCC)CCCCCC)c(=O)c4c5sc(=C(C#N)C#N)sc5c(c1=O)c2c34` (stereo not shown) [Compound 5, N,N′-di(2-butyloctyl)-[2,3-d:6,7-d′]-bi[2-(1,3-dithiacyclopenten-2-ylidene)-2-malononitrile]-naphthalene-1,4,5,8-tetracarboxylic acid diimide] had a melting point of 369 to 371 °C.

Take `CCCCCCCCCCC(CCCCCCCC)Cn1c(=O)c2c3sc(=C(C#N)C#N)sc3c3c(=O)n(CC(CCCCCCCC)CCCCCCCCCC)c(=O)c4c5sc(=C(C#N)C#N)sc5c(c1=O)c2c34` (stereo not shown) [Compound 2, N,N′-di(2-octyldodecyl)-[2,3-d:6,7-d′]-bi[2-(1,3-dithiacyclopenten-2-ylidene)-2-malononitrile]-naphthalene-1,4,5,8-tetracarboxylic acid diimide]: the melting point was 265 °C.

Consider `CCCCC(CC)Cn1c(=O)c2c3sc(=C(C#N)C#N)sc3c3c(=O)n(CC(CC)CCCC)c(=O)c4c5sc(=C(C#N)C#N)sc5c(c1=O)c2c34` (stereo not shown) [Compound 6, N,N′-di(2-ethylhexyl)-[2,3-d:6,7-d′]-bi[2-(1,3-dithiacyclopenten-2-ylidene)-2-malononitrile]-naphthalene-1,4,5,8-tetracarboxylic acid diimide], for which the solubility entry in data set [3] is “relatively low solubility”.

For `CCCCCCCCCCCCC(CCCCCCCCCC)Cn1c(=O)c2c3sc(=C(C#N)c4ccccc4)sc3c3c(=O)n(CC(CCCCCCCCCC)CCCCCCCCCCCC)c(=O)c4c5sc(=C(C#N)c6ccccc6)sc5c(c1=O)c2c34` (stereo not shown) [Compound 12, N,N′-di(2-decyltetradecyl)-[2,3-d:6,7-d′]-bi[2-(1,3-dithiacyclopenten-2-ylidene)-2-phenylacetonitrile]-naphthalene-1,4,5,8-tetracarboxylic acid diimide], the optical band gap in data set [1] is recorded as 1.8 eV. Further, the “maximum UV absorption peak” value in data set [1] (dichloromethane, 1×10^−6M) was “around 655 nm”. In data set [2] (vs SCE, dichloromethane), the “onset reduction potential Ered^onset” value is −0.23 V and the half-wave potential E1/2^red1 was -0.81 V. For the same molecule, the LUMO energy level in data set [4] is recorded as −4.17 eV.

For the molecule `CCCCCCCCC(CCCCCC)CCn1c(=O)c2c3sc(=C(C#N)C#N)sc3c3c(=O)n(CCC(CCCCCC)CCCCCCCC)c(=O)c4c5sc(=C(C#N)C#N)sc5c(c1=O)c2c34` (stereo not shown) [Compound 7, N,N′-di(3-hexylundecyl)-[2,3-d:6,7-d′]-bi[2-(1,3-dithiacyclopenten-2-ylidene)-2-malononitrile]-naphthalene-1,4,5,8-tetracarboxylic acid diimide], the melting point was 330 to 332 °C.

On to `CCCCCCCCCCCCC(CCCCCCCCCC)CN1C(=O)c2c3sc(C#N)c(C#N)c3c3c4c(c5sc(C#N)c(C#N)c5c(c24)C1=O)C(=O)N(CC(CCCCCCCCCC)CCCCCCCCCCCC)C3=O` (stereo not drawn) [Compound 18, N,N′-di(2-decyl-tetradecyl)-[2,3-d:6,7-d′]-bi[α,β-dicyanothiophene]-naphthalene-1,4,5,8-tetracarboxylic acid diimide], for which the optical band gap in data set [1] is 2.2 eV. Further, in data set [1] (dichloromethane, 1×10^−6M), the end absorption peak came to 545 nm and the “maximum UV absorption peak” value was 250˜318 nm. For the same molecule, the LUMO energy level in data set [2] was −4.63 eV. In data set [2] (vs SCE, dichloromethane), the “half-wave potential E1/2^red1” value was found to be 0.19 V and the “half-wave potential E1/2^red2” value was −0.40 V.

One may read the melting point as the temperature, or range, at which the solid turns liquid.
